According to EP0041491B1, “New para-substituted 3-phenoxy-1-alkylamino-propanol-2-s having beta receptor blocking properties” (priority 1980, dated 1981):

Key:
[1] = tested on: cardiac beta-adrenoceptors; assay: Experiment A: blockade of isoprenaline induced heart rate response, i.v. bolus of test compound, reserpinized anaesthetized cat; type: in vivo; conditions: i.v. bolus injection during isoprenaline infusion, reserpine pretreated, pentobarbital anaesthetized, vagotomized cats
Method: (§1) A bilateral vagotomy was performed in the neck. […] The perfusion pressure (PP) was recorded.
For each dose of the test compound the peak reduction of the isoprenaline heart rate response was expressed as per cent blockade according to the formula: [formula]
(§2) Per cent blockade (for each dose) was then plotted against log dose of the test compound. The ED:50 value (i.e. the dose which produced half maximal blockade) was interpolated.

in vivo = conditions: cat, iv
Method: (§8) All compounds were thereby tested in two different experimental models but with the same species, premedication and preparation. Cats (males and females weighing 2.5-3.5 kg) were pretreated with reserpine (5 mg/kg bodyweight administered intraperitoneally) about 16 hours before the experiments. The animals were pretreated with reserpine in order to eliminate the endogenous sympathetic control of heart rate and vascular smooth muscle tone. The cats were anaesthetized with pentobarbital (30 mg/kg bodyweight administered i.p.) and artificially ventilated with room air. A bilateral vagotomy was performed in the neck. Blood pressure was obtained from a cannulated carotid artery and heart rate was recorded from a cardiotachometer, triggered by the oscillations in blood pressure. The femoral artery of one hind leg was cannulated in both directions. Blood taken from the proximal part was pumped, at a constant flowrate, back into the distal part of the artery by means of a roller pump (Watson-Marlow). The perfusion pressure (PP) was recorded. Changes in PP indicated changes in the peripheral vascular resistance of the leg.
(§9) The maximal heart rate and vasodilator responses to isoprenaline were established by injecting a high i.v. bolus dose of isoprenaline (2.0 µmol/kg). An isoprenaline infusion rate was then established which gave a heart rate response (at steady state) which was about 80% of the maximal heart rate response to isoprenaline. Usually this dose of isoprenaline was 0.25 µmol/kg x min. The vasodilator response to this dose of isoprenaline was also approximately 80% of maximal. The isoprenaline dose was then infused during periods of 20 minutes with an interval of 20 minutes between the infusion periods.
(§10) The test compound was administered as an intravenous bolus injection seven minutes after start of each isoprenaline infusion. The dose of the test compound was increased until total blockade of the isoprenaline responses was achieved.
(§11) The plasma half life was estimated by the method of Levy (Nagashima, R., O'Reilly, R. A. and Levy, G., Clin. Pharmacol. Ther., 10 (1969) 22). The time from the peak inhibitory effect of each dose until 50% recovery was determined and plotted against log dose of the compound. The slope of the line obtained was calculated with linear regression. The slope equals 2.303/KE where Ke is the rate constant for elimination. The plasma half life (t 1/2) was then calculated according to the relation t 1/2 = 0.693/KE.

[2] = tested on: vascular beta-adrenoceptors; assay: Experiment B: blockade of isoprenaline induced vasodilatation, i.v. infusion of test compound; type: in vivo; conditions: i.v. infusion 12 minutes per dose, isoprenaline bolus 10 minutes after start, reserpine pretreated cats
Method: as §1
(§3) An isoprenaline bolus dose which gave a heart rate response which was about 80% of the maximal response was then tested out. Usually this dose of isoprenaline was 0.4 µmol/kg.
(§4) The test compound was then infused intravenously in increasing doses. Each dose was given during 12 minutes with an interval of 18 minutes between doses.
(§5) The control dose of isoprenaline was injected 10 minutes after start of each infusion of the test compound. The dose of the test compound was increased logarithmically until total blockade of the isoprenaline responses was achieved.
(§6) The inhibitory effect of each dose of the test compound was expressed as per cent blockade according to the formula: [formula]
(§7) Per cent blockade was then plotted against log dose of the blocker and the ED:50-value was interpolated (cf. above). The ED:50 for heart rate blockade and ED:50 for blockade of the vaso- dilatation could then be compared and the selectivity for the compound estimated. Intrinsic sympa- thomimetic activity was evaluated as the maximal heart rate elevation during infusion of the test compound.

[3] = tested on: cardiac beta-adrenoceptors; assay: Experiment B: blockade of isoprenaline induced heart rate response, i.v. infusion of test compound; type: in vivo; conditions: i.v. infusion 12 minutes per dose, isoprenaline bolus 10 minutes after start, reserpine pretreated cats
Method: as §1, §3, §4, §5, §6, §7

[4] = tested on: vascular beta-adrenoceptors; assay: Experiment A: blockade of isoprenaline induced vasodilatation (hind leg perfusion pressure), i.v. bolus of test compound; type: in vivo; conditions: i.v. bolus injection during isoprenaline infusion, reserpine pretreated cats
Method: A bilateral vagotomy was performed in the neck. […] The perfusion pressure (PP) was recorded. […]
as §2

[5] = Experiment A: plasma half life estimated by the method of Levy from time to 50% recovery of the blockade; conditions: cat, iv
Method: as §8, §9, §10, §11

Row | half-life (in vivo) | half-life [5] | SMILES | Blockade of isoprenaline induced effects Heart rate ED:50 [1] | Blockade of isoprenaline induced effects Vasodilatation ED:50 [2] | Blockade of isoprenaline induced effects Heart rate ED:50 [3] | Blockade of isoprenaline induced effects Vasodilatation ED:50 [4]
1 | 1 min | – | COC(=O)CCc1ccc(OCC(O)CNC(C)C)cc1 (centres unmarked) [Ex. 1, methyl 3-[4-(2-hydroxy-3.-isopropylaminopropoxy)phenyl]propanoate] | 2.3 µmol/kg | >25.6 µmol/kg/min | 3.6 µmol/kg/min | ~32.0 µmol/kg
2 | – | 1 min | CCOC(=O)CCc1ccc(OCC(O)CNC(C)C)cc1 (centres unmarked) [Ex. 2, Ethyl 3-[4-(2-hydroxy-3-isopropylaminopropoxy)-phenyl]propanoate] | 4.7 µmol/kg | 12.0 µmol/kg/min | 2.1 µmol/kg/min | >51.2 µmol/kg
3 | – | 1.5 min | COCCOC(=O)CCc1ccc(OCC(O)CNC(C)C)cc1 (centres unmarked) [Ex. 3, 2-Methoxyethyl 3-[4-(2-hydroxy-3-isopropylaminopropoxy)phenyl]propanoate] | 26.0 µmol/kg | >25.6 µmol/kg/min | 1.3 µmol/kg/min | ~30.0 µmol/kg
4 | – | 1.7 min | COCCOC(=O)CCCc1ccc(OCC(O)CNC(C)C)cc1 (centres unmarked) [Ex. 4, 2-Methoxyethyl 4-[4-(2-hydroxy-3-isopropylaminopropoxy)phenyl]butanoate] | 3.0 µmol/kg | 2.3 µmol/kg/min | 1.1 µmol/kg/min | 51.8 µmol/kg
5 | – | 0.3 min | CCCOC(=O)CCc1ccc(OCC(O)CNC(C)C)cc1 (centres unmarked) [Ex. 5, Propyl 3-[4-(2-hydroxy-3-isopropylaminopropoxy)phenyl]propanoate] | ~20.0 µmol/kg | >25.6 µmol/kg/min | 9.0 µmol/kg/min | >51.2 µmol/kg
6 | – | 3.5 min | CC(C)NCC(O)COc1ccc(CCC(=O)OC(C)C)cc1 (centres unmarked) [Ex. 6, Isopropyl 3-[4-(2-hydroxy-3-isopropylaminopropoxy)phenyl]propanoate] | 1.7 µmol/kg | >6.4 µmol/kg/min | 0.9 µmol/kg/min | >12.8 µmol/kg
7 | – | 3.3 min | CCOC(=O)CCCc1ccc(OCC(O)CNC(C)C)cc1 (centres unmarked) [Ex. 7, Ethyl 4-[4-(2-hydroxy-3-isopropylaminopropoxy)phenyl]butanoate] | 1.8 µmol/kg | >6.4 µmol/kg/min | 1.5 µmol/kg/min | >51.0 µmol/kg
8 | – | ~8 min | CCOC(=O)CCCc1ccc(OCC(O)CNC(C)C)c(Br)c1 (centres unmarked) [Ex. 8, Ethyl 4-[3-bromo-4-(2-hydroxy-3-isopropylaminopropoxy)phenyl]butanoate] | 2.1 µmol/kg | >6.4 µmol/kg/min | 1.2 µmol/kg/min | >17.0 µmol/kg
9 | – | 1 min | COC(=O)CCc1ccc(OCC(O)CNC(C)C)c(OC)c1 (centres unmarked) [Ex. 15, methyl 3-[4-(2-hydroxy-3-isopropylaminopropoxy)-3-methoxyphenyl]propanoate] | 0.9 µmol/kg | 18.0 µmol/kg/min | 1.9 µmol/kg/min | ~20.0 µmol/kg
10 | – | 2.2 min | CCOC(=O)CCc1ccc(OCC(O)CNC(C)C)c(Br)c1 (centres unmarked) [Ex. 20, ethyl 3-[3-bromo-4-(2-hydroxy-3-isopropylaminopropoxy)phenyl]propanoate] | 0.45 µmol/kg | >6.4 µmol/kg/min | 1.2 µmol/kg/min | >12.8 µmol/kg
11 | – | 0.9 min | CCOC(=O)CCc1ccc(OCC(O)CNC(C)C)c(OC)c1 (centres unmarked) [Ex. 21, ethyl 3-[4-(2-hydroxy-3-isopropylaminopropoxy)-3-methoxyphenyl]propanoate] | 0.8 µmol/kg | >6.4 µmol/kg/min | 2.05 µmol/kg/min | >52 µmol/kg
12 | – | 0.9 min | CCOC(=O)CCc1ccc(OCC(O)CNC(C)C)c(OCC)c1 (centres unmarked) [Ex. 22, ethyl 3-[3-ethoxy-4-(2-hydroxy-3-isopropylaminopropoxy)phenyl]propanoate] | 2.0 µmol/kg | 0.8 µmol/kg/min | 0.6 µmol/kg/min | >52 µmol/kg
13 | – | 1.8 min | CCOC(=O)CCc1ccc(OCC(O)CNC(C)C)c(Cl)c1 (centres unmarked) [Ex. 23, ethyl 3-[3-chloro-4-(2-hydroxy-3-isopropylaminopropoxy)phenyl]propanoate] | 1.8 µmol/kg | – | – | >52 µmol/kg
14 | – | 2.1 min | COc1cc(CCC(=O)OC(C)C)ccc1OCC(O)CNC(C)C (centres unmarked) [Ex. 24, isopropyl 3-[4-(2-hydroxy-3-isopropylaminopropoxy)-3-methoxyphenyl]propanoate] | 1.2 µmol/kg | – | – | >12.8 µmol/kg
15 | – | 0.9 min | CCOC(=O)CCc1ccc(OCC(O)CNC(C)C)c(F)c1 (centres unmarked) [Ex. 25, ethyl 3-[3-fluoro-4-(2-hydroxy-3-isopropylaminopropoxy)phenyl]propanoate] | 0.6 µmol/kg | >6.4 µmol/kg/min | 2.1 µmol/kg/min | >12.8 µmol/kg
